Data published in US7951954B2, “Bezothiazol derivatives as Beta2 adrenoreceptor agonists” (AstraZeneca AB, priority 2006, dated 2011).
Where a name gives a salt, the structure may show the parent alone. Read-outs that look alike come from different tables or passages of the source.

Key:
[1] = biological target: T1, recombinant human adrenergic beta 1 receptors (Homo sapiens, UniProt P08588); experiment: Adrenergic β1 selectivity assay, [125I]-Iodocyanopindolol binding to membranes; conditions: inhibition of [125I]-Iodocyanopindolol binding, read-out: β1 pEC50 (converted)
T1 construct: purchased Euroscreen
Method: Membranes containing recombinant human adrenergic beta 1 receptors were obtained from Euroscreen. These were diluted in Assay Buffer (50 mM HEPES, 1 mM EDTA, 120 mM NaCl, 0.1% gelatin, pH 7.4) to provide a final concentration of membranes that gave a clear window between maximum and minimum specific binding.
(§1) Assays were performed in U-bottomed 96-well polypropylene plates. 10 μL [^125I]-Iodocyanopindolol (0.036 nM final concentration) and 10 μL of test compound (10× final concentration) were added to each test well. For each assay plate 8 replicates were obtained for [^125I]-Iodocyanopindolol binding in the presence of 10 μL vehicle (10% (v/v) DMSO in Assay Buffer; defining maximum binding) or 10 μL Propranolol (10 μM final concentration; defining non-specific binding (NSB)). Membranes were then added to achieve a final volume of 100 μL. The plates were incubated for 2 hours at room temperature and then filtered onto PEI coated GF/B filter plates, pre-soaked for 1 hour in Assay Buffer, using a 96-well plate Tomtec cell harvester. Five washes with 250 μL wash buffer (50 mM HEPES, 1 mM EDTA, 120 mM NaCl, pH 7.4) were performed at 4° C. to remove unbound radioactivity. The plates were dried then sealed from underneath using Packard plate sealers and MicroScint-O (50 μL) was added to each well. The plates were sealed (TopSeal A) and filter-bound radioactivity was measured with a scintillation counter (TopCount, Packard BioScience) using a 3-minute counting protocol.
(§2) Total specific binding (B0) was determined by subtracting the mean NSB from the mean maximum binding. NSB values were also subtracted from values from all other wells.

Adrenergic β2 = biological target: T2, Adrenergic β2 (Homo sapiens, UniProt P07550); experiment: Adrenergic β2 mediated cAMP production in H292 cells (AlphaScreen cAMP detection); type: cell-based; conditions: for EC50: cAMP production in H292 cells, 300 μM rolipram, 10 minutes with compound, read-out: β2 pEC50 (converted)
T2 construct: endogenous in cells; host or cells: H292 cells
Method: Adrenergic β2 Mediated cAMP Production
H292 cells were grown in RPMI (Roswell Park Memorial Institute) medium containing, 10% (v/v) FBS (foetal bovine serum) and 2 mM L-glutamine. Cells were grown in 225 cm2 flasks containing 25 mL media in a humidified incubator at 37° C., 5% CO2. Cells were harvested from the flask and passaged at a 1 in 10 dilution once per week.
The media from flasks containing H292 cells was removed, rinsed with 10 mL PBS phosphate buffered saline) and replaced with 10 mL Accutase™ cell detachment solution. Flasks were incubated for 15 minutes in a humidified incubator at 37° C., 5% CO2. The cell suspension was counted and the cells re-suspended in RPMI media (containing 10% (v/v) FBS and 2 mM L-glutamine) at 0.05×10^6 cells per mL. 5000 cells in 100 μL were added to each well of a tissue-culture-treated 96-well plate and the cells incubated overnight in a humidified incubator at 37° C., 5% CO2. The culture media was removed, washed twice with 100 μL assay buffer and replaced with 50 μL assay buffer. Cells were rested at room temperature for 20 minutes after which time 25 μL of rolipram (1.2 mM made up in assay buffer containing 2.4% (v/v) dimethylsulphoxide) was added. Cells were incubated with rolipram for 10 minutes after which time test compounds (made up as ×4 concentrated stocks in assay buffer containing 4% (v/v) dimethylsulphoxide) were added and the cells were incubated for 10 minutes at room temperature. Final rolipram concentration in the assay was 300 μM and final vehicle concentration was 1.6% (v/v) dimethylsulphoxide. The reaction was stopped by removing supernatants, washing once with 100 μL assay buffer and replacing with 50 μL lysis buffer. The cell monolayer was frozen at −80° C. for 30 minutes (or overnight).
The concentration of cAMP (cyclic adenosine monophosphate) in the cell lysate was determined using the AlphaScreen™ methodology. The frozen cell plate was thawed for 20 minutes on a plate shaker then 10 μL of the cell lysate was transferred to a 96-well white plate. 40 μL of mixed AlphaScreen™ detection beads (containing equal volumes of donor beads (pre-incubated with biotinylated cAMP in the dark for 30 minutes) and acceptor beads), was added to each well and the plate incubated at room temperature for 10 hours in the dark. The AlphaScreen™ signal was measured using an EnVision spectrophotometer (Perkin-Elmer Inc.) with the recommended manufacturer's settings. cAMP concentrations were determined by reference to a calibration curve determined in the same experiment using standard cAMP concentrations (made up in lysis buffer in a 96-well tissue-culture-treated plate and frozen/thawed alongside the test samples) and detected using the same protocol. Concentration response curves for agonists were constructed to determine both the pEC50 and Intrinsic Activity.

[2] = biological target: T3, recombinant human α1D receptor (Homo sapiens, UniProt P25100); experiment: Adrenergic α1D selectivity assay, [3H]-prazosin binding to HEK293 membranes; conditions: inhibition of [3H]-prazosin binding, HEK293 membranes with recombinant human α1D; read-out: α1D pEC50 (converted)
T3 construct: expressed in transfected cells; host or cells: HEK293
T3 sequence (P25100 1-572): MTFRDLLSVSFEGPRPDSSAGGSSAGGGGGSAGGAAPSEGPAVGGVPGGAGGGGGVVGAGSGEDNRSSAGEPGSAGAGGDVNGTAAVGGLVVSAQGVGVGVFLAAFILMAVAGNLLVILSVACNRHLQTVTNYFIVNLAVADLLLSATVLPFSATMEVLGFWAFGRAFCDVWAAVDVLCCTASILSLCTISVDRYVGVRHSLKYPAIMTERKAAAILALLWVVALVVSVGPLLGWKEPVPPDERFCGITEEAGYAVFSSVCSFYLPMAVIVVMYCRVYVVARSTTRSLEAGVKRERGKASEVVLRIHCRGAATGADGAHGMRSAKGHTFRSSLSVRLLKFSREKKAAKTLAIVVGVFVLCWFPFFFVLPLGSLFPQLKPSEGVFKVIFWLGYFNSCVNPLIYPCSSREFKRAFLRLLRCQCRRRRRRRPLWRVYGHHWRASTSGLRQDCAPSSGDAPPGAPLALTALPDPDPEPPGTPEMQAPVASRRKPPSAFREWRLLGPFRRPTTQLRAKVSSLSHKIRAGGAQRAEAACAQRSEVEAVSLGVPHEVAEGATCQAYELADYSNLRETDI
Method: These were diluted in Assay Buffer (50 mM HEPES, 1 mM EDTA, 0.1% gelatin, pH 7.4) to provide a final concentration of membranes that gave a clear window between maximum and minimum specific binding.
as §1, with “10 μL [^125I]-Iodocyanopindolol (0.036 nM final concentration) and 10 μL of test compound (10× final concentration) were added to each test well.” left out, “[^3H]-prazosin” for “[^125I]-Iodocyanopindolol”, “BMY7378” for “Propranolol”, “EDTA,” for “EDTA, 120 mM NaCl,”
as §2

[3] = fraction relative to the maximum activity determined for formoterol in each experiment, H292 cells, cAMP

T2 sequence (P07550 whole entry): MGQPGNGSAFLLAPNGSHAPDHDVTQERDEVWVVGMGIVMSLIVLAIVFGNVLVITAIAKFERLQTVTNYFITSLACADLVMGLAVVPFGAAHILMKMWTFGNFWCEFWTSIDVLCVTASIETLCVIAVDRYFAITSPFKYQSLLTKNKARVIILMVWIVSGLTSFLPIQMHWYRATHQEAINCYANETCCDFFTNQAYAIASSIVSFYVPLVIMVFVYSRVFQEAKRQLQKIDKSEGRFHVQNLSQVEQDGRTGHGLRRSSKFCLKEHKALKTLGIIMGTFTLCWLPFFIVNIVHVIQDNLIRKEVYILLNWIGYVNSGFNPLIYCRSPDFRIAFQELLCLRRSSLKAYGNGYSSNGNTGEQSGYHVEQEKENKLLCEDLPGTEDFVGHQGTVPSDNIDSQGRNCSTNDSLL
T1 sequence (P08588 whole entry): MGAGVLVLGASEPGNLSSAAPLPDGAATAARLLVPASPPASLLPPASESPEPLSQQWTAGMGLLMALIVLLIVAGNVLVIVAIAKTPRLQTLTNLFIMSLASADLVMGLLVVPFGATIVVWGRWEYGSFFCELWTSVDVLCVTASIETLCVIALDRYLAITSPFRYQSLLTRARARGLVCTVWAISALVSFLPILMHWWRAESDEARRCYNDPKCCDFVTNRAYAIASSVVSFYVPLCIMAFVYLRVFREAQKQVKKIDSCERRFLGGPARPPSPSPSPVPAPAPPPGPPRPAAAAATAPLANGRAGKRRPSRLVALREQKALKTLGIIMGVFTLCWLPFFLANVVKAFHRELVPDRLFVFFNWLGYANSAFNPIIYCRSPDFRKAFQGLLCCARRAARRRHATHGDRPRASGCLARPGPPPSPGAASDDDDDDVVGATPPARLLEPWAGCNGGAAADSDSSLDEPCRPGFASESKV

| EC50 (Adrenergic β2) [nM] | Intrinsic Activity (Adrenergic β2; [3]) | SMILES | EC50 [1] [nM] | Intrinsic Activity (Adrenergic β2) | EC50 [2] [nM] |
| --- | --- | --- | --- | --- | --- |
| – | – | CC(Cc1cccc(CNCCc2c(Cl)cccc2Cl)c1)NC[C@H](O)c1ccc(O)c2[nH]c(=O)sc12 (stereo partly drawn) [Example 15, 7-{2-[2-(3-{[2-(2,6-Dichloro-phenyl)-ethylamino]-methyl}-phenyl)-1-methyl-ethylamino]-1R-hydroxy-ethyl}-4-hydroxy-3H-benzothiazol-2-one bis-trifluoroacetate salt] | 15.8 | 0.8 | 39.8 |
| 0.794 | 0.9 | O=c1[nH]c2c(O)ccc([C@@H](O)CNCCc3cccc(CN4CCCCCC4)c3)c2s1 [Example 71, 7-{2-[2-(3-Azepan-1-ylmethyl-phenyl)-ethylamino]-1R-hydroxy-ethyl}-4-hydroxy-3H-benzothiazol-2-one bis-hydrochloride salt-] | 398 | – | 31.6 |
| 2.51 | 0.8 | O=c1[nH]c2c(O)ccc([C@@H](O)CNCCc3cccc(CNCCc4cccc[n+]4[O-])c3)c2s1 [Example 40, 4-Hydroxy-7-{1R-hydroxy-2-[2-(3-{[2-(1-oxy-pyridin-2-yl)-ethylamino]-methyl}-phenyl)-ethylamino]-ethyl}-3H-benzothiazol-2-one bis-trifluoroacetate salt] | 39.8 | – | 100 |
| 0.631 | 0.9 | CC(C)NCc1ccc(CCNC[C@H](O)c2ccc(O)c3[nH]c(=O)sc23)cc1 [Example 53, 4-Hydroxy-7-{1R-hydroxy-2-[2-(4-isopropylaminomethyl)phenyl]ethylamino}-ethyl)-3H-benzothiazol-2-one bis-trifluoroacetate salt] | 251 | – | 398 |
| – | – | COc1ccccc1CNCCc1cccc(CCNC[C@H](O)c2ccc(O)c3[nH]c(=O)sc23)c1 [Example 45, 4-Hydroxy-7-[1R-hydroxy-2-(2-{3-[2-(2-methoxy-benzylamino)-ethyl]-phenyl}-ethylamino)-ethyl]-3H-benzothiazol-2-one bis-hydrochloride salt] | 63.1 | 1.0 | 25.1 |
| – | – | O=c1[nH]c2c(O)ccc([C@@H](O)CNCCc3ccc(CNCCc4ccccn4)cc3)c2s1 [Example 22, 4-Hydroxy-7-[1R-hydroxy-2-(2-{4-[(2-(2-pyridyl)ethylamino)methyl]phenyl}-ethylamino)ethyl]-3H-benzothiazol-2-one tris-trifluoroacetate salt] | 794 | 1.0 | 25.1 |
| 0.794 | 0.8 | CC(C)OCCCNCc1cccc(CCNC[C@H](O)c2ccc(O)c3[nH]c(=O)sc23)c1 [Example 64, 4-Hydroxy-7-[1R-hydroxy-2-(2-{3-[(3-isopropoxy-propylamino)-methyl]-phenyl}-ethylamino)-ethyl]-3H-benzothiazol-2-one bis-hydrochloride salt] | 501 | – | 398 |
| 1 | 0.9 | O=c1[nH]c2c(O)ccc([C@@H](O)CNCCc3cccc(CN4CCOCC4)c3)c2s1 [Example 72, 4-Hydroxy-7-{1R-hydroxy-2-[2-(3-morpholin-4-ylmethyl-phenyl)-ethylamino]-ethyl}-3H-benzothiazol-2-one bis-hydrochloride salt] | 100 | – | 398 |
| – | – | COc1ccccc1CNCc1cccc(CCNC[C@H](O)c2ccc(O)c3[nH]c(=O)sc23)c1 [Example 36, 4-Hydroxy-7-[1R-hydroxy-2-(2-{3-[(2-methoxy-benzylamino)-methyl]-phenyl}-ethylamino)-ethyl]-3H-benzothiazol-2-one bis-trifluoroacetate salt] | 50.1 | 0.8 | 200 |
| – | – | O=c1[nH]c2c(O)ccc([C@@H](O)CNCCc3cccc(CNCc4ccccc4Cl)c3)c2s1 [Example 3, 7-[2-(2-{3-[(2-Chloro-benzylamino)-methyl]-phenyl}-ethylamino)-1R-hydroxy-ethyl]-4-hydroxy-3H-benzothiazol-2-one bis-trifluoroacetate salt] | 10 | 0.9 | 158 |

| SMILES | EC50 (Adrenergic β2) [nM] | Intrinsic Activity (Adrenergic β2; [3]) | EC50 [1] [nM] | Intrinsic Activity (Adrenergic β2) | EC50 [2] [nM] |
| --- | --- | --- | --- | --- | --- |
| COCCNCc1cccc(CCNC[C@H](O)c2ccc(O)c3[nH]c(=O)sc23)c1 [Example 13, 4-Hydroxy-7-[1R-hydroxy-2-(2-{3-[(2-methoxy-ethylamino)-methyl]-phenyl}-ethylamino)-ethyl]-3H-benzothiazol-2-one di-hydrochloride salt] | 2 | – | 158 | 1.0 | 501 |
| O=c1[nH]c2c(O)ccc([C@@H](O)CNCCc3cccc(CN4CCCC4)c3)c2s1 [Example 51, 4-Hydroxy-7-{1R-hydroxy-2-[2-(3-pyrrolidin-1-ylmethyl-phenyl)-ethylamino]-ethyl}-3H-benzothiazol-2-one bis-hydrochloride salt] | 1 | 1.1 | 1260 | – | 1000 |
